Laboratory results: ChEMBL document CHEMBL1152583 (Bioorg Med Chem, 2009)
pIC50: −log10 of the molar value.

What was measured:
Acetylcholinesterase [1] = target: Acetylcholinesterase (Torpedo californica, UniProt P04058)
Description: Inhibition of Torpedo california AChE by Ellman's method

Acetylcholinesterase [2] = target: Acetylcholinesterase (Homo sapiens, UniProt P22303)
Description: Inhibition of human AChE by Ellman's method

[3] = target: Acetylcholinesterase (Torpedo californica) (UniProt P04058); experiment: Inhibition of Torpedo california AChE at 1.25 nM by Ellman's method; settings: Tetronarce californica
[4] = target: Acetylcholinesterase (Torpedo californica) (UniProt P04058); experiment: Inhibition of Torpedo california AChE at 0.625 nM by Ellman's method; settings: Tetronarce californica
[5] = target: Acetylcholinesterase (Torpedo californica) (UniProt P04058); experiment: Inhibition of Torpedo california AChE at 0.313 nM by Ellman's method; settings: Tetronarce californica
[6] = target: Acetylcholinesterase (Torpedo californica) (UniProt P04058); experiment: Inhibition of Torpedo california AChE at 0.5 nM by Ellman's method; settings: Tetronarce californica
[7] = target: Acetylcholinesterase (Torpedo californica) (UniProt P04058); experiment: Inhibition of Torpedo california AChE at 0.25 nM by Ellman's method; settings: Tetronarce californica
[8] = target: Acetylcholinesterase (Torpedo californica) (UniProt P04058); experiment: Ratio of IC50 for drug to P0407 for Torpedo california AChE by Ellman's method; settings: Tetronarce californica
[9] = target: Acetylcholinesterase (Torpedo californica) (UniProt P04058); experiment: Inhibition of Torpedo california AChE at 62.5 pM by Ellman's method; settings: Tetronarce californica
[10] = target: Acetylcholinesterase (Torpedo californica) (UniProt P04058); experiment: Inhibition of Torpedo california AChE at 31.3 pM by Ellman's method; settings: Tetronarce californica
[11] = target: Acetylcholinesterase (Torpedo californica) (UniProt P04058); experiment: Inhibition of Torpedo california AChE at 15.6 pM by Ellman's method; settings: Tetronarce californica
[12] = target: Acetylcholinesterase (Torpedo californica) (UniProt P04058); experiment: Inhibition of Torpedo california AChE at 7.81 pM by Ellman's method; settings: Tetronarce californica
[13] = target: Acetylcholinesterase (Torpedo californica) (UniProt P04058); experiment: Inhibition of Torpedo california AChE at 0.125 nM by Ellman's method; settings: Tetronarce californica
[14] = target: Acetylcholinesterase (Torpedo californica) (UniProt P04058); settings: Tetronarce californica; 5 uM
Description: Inhibition of Torpedo california AChE at 5 uM by Ellman's method

[15] = target: Acetylcholinesterase (Torpedo californica) (UniProt P04058); settings: Tetronarce californica; 25 uM
Description: Inhibition of Torpedo california AChE at 25 uM by Ellman's method

[16] = target: Acetylcholinesterase (Torpedo californica) (UniProt P04058); settings: Tetronarce californica; 1.25 uM
Description: Inhibition of Torpedo california AChE at 1.25 uM by Ellman's method

[17] = target: Acetylcholinesterase (Torpedo californica) (UniProt P04058); settings: Tetronarce californica; 0.625 uM
Description: Inhibition of Torpedo california AChE at 0.625 uM by Ellman's method

[18] = target: Acetylcholinesterase (Torpedo californica) (UniProt P04058); settings: Tetronarce californica; 0.313 uM
Description: Inhibition of Torpedo california AChE at 0.313 uM by Ellman's method

[19] = target: Acetylcholinesterase (Torpedo californica) (UniProt P04058); experiment: Inhibition of Torpedo california AChE at 5 nM by Ellman's method; settings: Tetronarce californica
[20] = target: Acetylcholinesterase (Torpedo californica) (UniProt P04058); experiment: Inhibition of Torpedo california AChE at 2.5 nM by Ellman's method; settings: Tetronarce californica
[21] = target: Acetylcholinesterase (Torpedo californica) (UniProt P04058); experiment: Inhibition of Torpedo california AChE at 30.3 nM by Ellman's method; settings: Tetronarce californica
[22] = target: Acetylcholinesterase (Torpedo californica) (UniProt P04058); experiment: Inhibition of Torpedo california AChE at 15.1 nM by Ellman's method; settings: Tetronarce californica
[23] = target: Acetylcholinesterase (Torpedo californica) (UniProt P04058); experiment: Inhibition of Torpedo california AChE at 7.56 nM by Ellman's method; settings: Tetronarce californica
[24] = target: Acetylcholinesterase (Torpedo californica) (UniProt P04058); settings: Tetronarce californica; 60.5 nM
Description: Inhibition of Torpedo california AChE at 60.5 nM by Ellman's method

Acetylcholinesterase (Torpedo californica), sequence (P04058 22-564 limits assumed): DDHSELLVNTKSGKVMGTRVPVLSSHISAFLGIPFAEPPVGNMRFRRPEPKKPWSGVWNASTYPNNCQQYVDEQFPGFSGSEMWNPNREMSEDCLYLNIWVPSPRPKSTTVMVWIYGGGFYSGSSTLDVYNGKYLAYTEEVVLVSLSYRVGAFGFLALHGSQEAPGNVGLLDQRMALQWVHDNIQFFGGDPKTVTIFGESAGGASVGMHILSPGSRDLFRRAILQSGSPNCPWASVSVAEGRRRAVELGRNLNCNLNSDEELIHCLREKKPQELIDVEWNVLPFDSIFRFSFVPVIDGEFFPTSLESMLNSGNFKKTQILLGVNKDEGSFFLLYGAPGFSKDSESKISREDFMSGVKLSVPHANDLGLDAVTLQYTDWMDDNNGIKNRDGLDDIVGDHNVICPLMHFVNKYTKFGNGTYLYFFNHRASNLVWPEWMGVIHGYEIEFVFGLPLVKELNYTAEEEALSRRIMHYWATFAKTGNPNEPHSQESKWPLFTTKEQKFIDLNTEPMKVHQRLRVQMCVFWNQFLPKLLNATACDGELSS
Acetylcholinesterase (Torpedo californica, UniProt P04058), sequence (P04058 whole entry): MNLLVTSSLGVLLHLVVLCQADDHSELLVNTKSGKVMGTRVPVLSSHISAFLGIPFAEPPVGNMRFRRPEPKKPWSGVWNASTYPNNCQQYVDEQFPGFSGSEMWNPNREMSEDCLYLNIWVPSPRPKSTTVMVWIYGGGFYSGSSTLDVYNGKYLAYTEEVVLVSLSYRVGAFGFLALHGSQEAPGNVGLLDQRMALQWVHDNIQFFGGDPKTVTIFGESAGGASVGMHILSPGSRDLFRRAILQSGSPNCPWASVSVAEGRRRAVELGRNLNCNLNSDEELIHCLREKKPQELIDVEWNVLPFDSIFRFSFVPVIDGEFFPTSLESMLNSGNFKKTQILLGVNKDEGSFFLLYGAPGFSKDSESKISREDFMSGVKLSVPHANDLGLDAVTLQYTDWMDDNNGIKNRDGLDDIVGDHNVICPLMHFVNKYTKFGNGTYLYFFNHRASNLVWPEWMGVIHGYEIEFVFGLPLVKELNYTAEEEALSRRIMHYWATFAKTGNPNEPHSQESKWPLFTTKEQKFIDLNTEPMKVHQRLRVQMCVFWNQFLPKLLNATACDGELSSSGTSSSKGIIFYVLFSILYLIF
Acetylcholinesterase (Homo sapiens, UniProt P22303), sequence (P22303 whole entry): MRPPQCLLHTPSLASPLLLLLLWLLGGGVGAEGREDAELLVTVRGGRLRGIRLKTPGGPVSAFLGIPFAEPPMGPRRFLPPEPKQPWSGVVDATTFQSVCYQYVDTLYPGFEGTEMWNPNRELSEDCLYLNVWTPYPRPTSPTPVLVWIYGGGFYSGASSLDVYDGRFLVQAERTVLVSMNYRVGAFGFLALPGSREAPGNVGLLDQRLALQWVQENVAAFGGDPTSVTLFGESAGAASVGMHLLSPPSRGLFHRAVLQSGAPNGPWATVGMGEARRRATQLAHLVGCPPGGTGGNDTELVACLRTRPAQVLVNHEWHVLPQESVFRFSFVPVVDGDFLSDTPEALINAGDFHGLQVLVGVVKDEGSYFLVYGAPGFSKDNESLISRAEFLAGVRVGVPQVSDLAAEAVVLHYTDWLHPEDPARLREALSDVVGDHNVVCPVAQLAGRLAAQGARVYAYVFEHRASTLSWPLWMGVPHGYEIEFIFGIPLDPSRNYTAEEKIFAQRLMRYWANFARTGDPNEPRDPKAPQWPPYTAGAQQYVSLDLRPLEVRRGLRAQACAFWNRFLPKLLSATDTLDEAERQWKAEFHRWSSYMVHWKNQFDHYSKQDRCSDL

Compound: C/C=C1\[C@H]2C=C(C)C[C@]1(/N=C/c1ccccc1OS(=O)(=O)O)c1ccc(=O)[nH]c1C2
- pIC50 (Acetylcholinesterase [1]): 7.74
- pIC50 (Acetylcholinesterase [2]): 7.39

Compound: C/C=C1\[C@H]2C=C(C)C[C@]1(/N=C/c1ccc(O)c(OCC)c1)c1ccc(=O)[nH]c1C2
- inhibition [3]: 56.2%
- inhibition [4]: 43.6%
- inhibition [5]: 28.2%
- inhibition [6]: 84%
- inhibition [7]: 68.1%
- pIC50 (Acetylcholinesterase [1]): 9.07
- pIC50 (Acetylcholinesterase [2]): 7.60

Compound: C/C=C1\[C@H]2C=C(C)C[C@]1(/N=C/c1ccc(C#N)cc1)c1ccc(=O)[nH]c1C2
- Ratio [8]: 517
- inhibition [9]: 79.4%
- inhibition [10]: 38.7%
- inhibition [11]: 26%
- inhibition [12]: 12.6%
- inhibition [13]: 89.3%
- pIC50 (Acetylcholinesterase [1]): 10.39
- pIC50 (Acetylcholinesterase [2]): 7.66

Compound: C/C=C1\[C@H]2C=C(C)C[C@]1(/N=C/c1ccc(OC)cc1OC)c1ccc(=O)[nH]c1C2
- Ratio [8]: 477
- inhibition [9]: 62.8%
- inhibition [10]: 36.2%
- inhibition [11]: 22.1%
- inhibition [12]: 15.9%
- inhibition [13]: 76.5%
- pIC50 (Acetylcholinesterase [1]): 10.35
- pIC50 (Acetylcholinesterase [2]): 7.08

Compound: C/C=C1\[C@H]2C=C(C)C[C@]1(/N=C/C(=C/c1ccccc1)CCCCC)c1ccc(=O)[nH]c1C2
- pIC50 (Acetylcholinesterase [1]): 6.10
- pIC50 (Acetylcholinesterase [2]): 7.29
- inhibition [14]: 86%
- inhibition [15]: 79%
- inhibition [16]: 58.6%
- inhibition [17]: 44.2%
- inhibition [18]: 30.4%

Compound: C/C=C1\[C@H]2C=C(C)C[C@]1(/N=C/C=C/c1ccccc1)c1ccc(=O)[nH]c1C2
- inhibition [3]: 37.1%
- inhibition [4]: 16.7%
- inhibition [5]: 5.5%
- inhibition [19]: 83.4%
- inhibition [20]: 62.5%
- pIC50 (Acetylcholinesterase [1]): 8.74
- pIC50 (Acetylcholinesterase [2]): 7.62

Compound: C/C=C1\[C@H]2C=C(C)C[C@]1(/N=C/c1ccc(N(C)C)cc1)c1ccc(=O)[nH]c1C2
- pIC50 (Acetylcholinesterase [1]): 7.63
- pIC50 (Acetylcholinesterase [2]): 7.51

Compound: CNC(=O)Oc1ccc2c(c1)[C@]1(C)CCN(C)[C@@H]1N2C
- inhibition [21]: 64.3%
- inhibition [22]: 45.5%
- inhibition [23]: 24.7%

Compound: C=CCOc1ccc(/C=N/[C@@]23CC(C)=C[C@@H](Cc4[nH]c(=O)ccc42)/C3=C\C)cc1
- pIC50 (Acetylcholinesterase [1]): 7.86
- pIC50 (Acetylcholinesterase [2]): 7.51

Compound: C/C=C1\[C@H]2C=C(C)C[C@]1(/N=C/c1cc(OC)cc(OC)c1)c1ccc(=O)[nH]c1C2
- Ratio [8]: 1060
- inhibition [9]: 80.6%
- inhibition [10]: 61.7%
- inhibition [11]: 41.3%
- inhibition [12]: 28.5%
- inhibition [13]: 90.8%
- pIC50 (Acetylcholinesterase [1]): 10.70
- pIC50 (Acetylcholinesterase [2]): 7.54
- inhibition [24]: 73.7%
